# In US20050233389A1, “Methods and compositions for peptide and protein labeling” (priority 2003, published 2005):
# Columns and labels:
# BirA = BirA (Escherichia coli, UniProt P06709); test: Measurement of probe ligation kinetics (HPLC); assay type: biochemical, E. coli; conditions: for initial rate for ligation to synthetic AP: 100 μM AP, 30° C.
# Method: (§1) HPLC assay for probe ligation to synthetic AP. The synthetic acceptor peptide (AP) with sequence […] (SEQ ID NO: 22) was synthesized by the Tufts University Core Facility. […] Following lyophilization, the peptide was redissolved in water, and the concentration was determined from the absorbance at 280 nm using the calculated extinction coefficient of 5690 M^−1cm^−1. Reaction conditions for the probe ligation to the AP were as follows: 50 mM bicine pH 8.3, 5 mM Mg(OAc)2, 4 mM ATP, 100 μM AP, 1-2 μM BirA, and 1 mM probe (either biotin or racemic ketone 1). Reactions were incubated at 30° C. for 1-2 hours, then quenched with addition of 45 mM EDTA. Reactions were analyzed on a reverse-phase HPLC column (Microsorb-MV 300 C18). Biotin ligation reactions were analyzed using a gradient of 10-43% acetonitrile/water with 0.1% TFA over 20 minutes (flow rate 1.0 mL/min); retention times were 8.2 minutes for biotin, 16.3 minutes for the AP, and 17.7 minutes for the AP-biotin conjugate. Ketone 1 ligation reactions were analyzed using a gradient of 10-46% acetonitrile/water with 0.1 % TFA over 25 minutes (flow rate 1.0 mL/min); retention times were 16.4 minutes for ketone 1, 17.9 minutes for the AP, and 22.0 minutes for the AP-ketone 1 conjugate. For MALDI-TOF analysis, the product peak was collected, diluted with matrix solution (saturated α-cyano 4-hydroxycinnamic acid in 50% acetonitrile/water with 0.05% TFA), and spotted onto the sample target. Positive-ion MALDI-TOF data was acquired in reflector mode with external calibration.
# Measurement of probe ligation kinetics. For kinetic measurements, the reaction conditions were the same as above except that 0.091 μM BirA was used, and for the ketone ligation reactions, 2 mM of racemic ketone 1 was used. A 400 μL reaction was initiated by addition of BirA and incubated at 30° C. At various timepoints, a 40 μL aliquot was removed and quenched with EDTA. Reactions were analyzed by reverse-phase HPLC as described above. The area ratios of AP and AP-probe conjugate peaks were converted to concentrations of AP-probe conjugate using a calibration curve generated by mixing known ratios of AP and AP-probe conjugate. The concentration of AP-probe conjugate was plotted versus time, and the reported initial rate was the slope of the line fit to the linear region of product synthesis.
# wild-type BirA = wild-type BirA (Escherichia coli, UniProt P06709); test: HPLC assay for probe ligation to synthetic AP; assay type: biochemical, E. coli; conditions: enantiomers separated by chiral HPLC; data not shown
# Method: as §1, with “For MALDI-TOF analysis, the product peak was collected, diluted with matrix solution (saturated α-cyano 4-hydroxycinnamic acid in 50% acetonitrile/water with 0.05% TFA), and spotted onto the sample target. Positive-ion MALDI-TOF data was acquired in reflector mode with external calibration.” left out
# streptavidin = streptavidin (Streptomyces avidinii, UniProt P22629); test: streptavidin binding to ketone 1; conditions: separate experiments; data not shown
# Chain of streptavidin (P22629 25-183): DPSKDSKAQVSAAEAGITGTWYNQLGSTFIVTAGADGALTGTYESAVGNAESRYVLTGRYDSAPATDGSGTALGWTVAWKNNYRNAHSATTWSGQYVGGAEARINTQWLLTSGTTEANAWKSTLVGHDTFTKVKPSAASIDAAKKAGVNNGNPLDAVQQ
# Chain of BirA (P06709 whole entry): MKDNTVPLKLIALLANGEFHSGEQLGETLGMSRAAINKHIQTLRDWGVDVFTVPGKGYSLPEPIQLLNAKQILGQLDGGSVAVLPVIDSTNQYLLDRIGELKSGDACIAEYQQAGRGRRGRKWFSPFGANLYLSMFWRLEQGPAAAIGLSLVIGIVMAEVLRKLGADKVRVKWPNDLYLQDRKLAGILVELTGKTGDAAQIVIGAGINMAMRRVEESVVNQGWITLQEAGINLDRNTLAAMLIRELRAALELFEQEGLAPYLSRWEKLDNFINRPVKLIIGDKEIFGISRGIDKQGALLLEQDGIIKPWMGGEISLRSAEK
# Chain of wild-type BirA (P06709 whole entry): as above
SMILES,conversion until which the ligation rate remained constant (BirA; 0.091 μM BirA) [%],"initial rate for ligation to synthetic AP (BirA; 1 mM biotin, 0.091 μM BirA) [µM/min]",acceptance of separated enantiomers by BirA (wild-type BirA),enzyme turnovers after which the ligation rate slowed markedly (BirA; 0.091 μM BirA) [enzyme turnovers],"initial rate for ligation to synthetic AP (BirA; 2 mM racemic ketone 1, 0.091 μM BirA) [µM/min]","initial ligation rate, fold less than that for biotin ligation (BirA; ketone 1 vs biotin, identical conditions) [fold]",binding of streptavidin to the probe itself (streptavidin)
"O=C(O)CCCC[C@@H]1SC[C@@H]2NC(=O)N[C@@H]21 [biotin, reference compound]",> 50,0.954 ± 0.018,,,,,
O=C(O)CCCC[C@@H]1SC[C@@H]2CC(=O)C[C@@H]21 [ketone 1],,,Only one enantiomer was accepted,~100,0.258 ± 0.024,3.7,does not bind
